Target: T1, Ski7C (Saccharomyces cerevisiae, UniProt Q08491)
T1 construct: gene SKI7; C-terminal GTPase-like region, residues 254-747; N-terminal thioredoxin tag cut with PreScission; expressed in E. coli BL21; one molecule per asymmetric unit (SeMet form for phasing)
T1 sequence (Q08491 254-747): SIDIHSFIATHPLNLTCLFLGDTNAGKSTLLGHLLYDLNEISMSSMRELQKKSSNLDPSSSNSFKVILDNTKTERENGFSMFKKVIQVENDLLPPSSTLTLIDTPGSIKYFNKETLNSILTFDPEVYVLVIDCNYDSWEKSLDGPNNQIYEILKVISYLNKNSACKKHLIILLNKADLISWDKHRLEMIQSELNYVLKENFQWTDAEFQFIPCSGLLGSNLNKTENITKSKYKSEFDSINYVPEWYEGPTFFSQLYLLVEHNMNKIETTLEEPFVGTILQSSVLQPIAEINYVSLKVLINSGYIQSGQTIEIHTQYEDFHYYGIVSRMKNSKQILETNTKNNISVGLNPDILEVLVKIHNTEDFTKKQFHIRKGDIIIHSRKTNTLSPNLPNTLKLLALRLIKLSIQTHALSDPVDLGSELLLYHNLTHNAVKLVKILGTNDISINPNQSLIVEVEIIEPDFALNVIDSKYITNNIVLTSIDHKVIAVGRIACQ
Test: thermal shift (Thermofluor)
Assay type: binding
Conditions: nucleotide analog added during alkaline phosphatase treatment; nucleotide-free protein as reference

Row | SMILES | Tm [°C]
1 | Nc1nc2c(ncn2[C@@H]2O[C@H](COP(=O)(O)CP(=O)(O)O)[C@@H](O)[C@H]2O)c(=O)[nH]1 [GMPCP] | 44.0
2 | Nc1nc2c(ncn2[C@@H]2O[C@H](COP(=O)(O)OP(=O)(O)NP(=O)(O)O)[C@@H](O)[C@H]2O)c(=O)[nH]1 [GMPPNP] | 47.6

From article PMC4509514, “Saccharomyces cerevisiae Ski7 Is a GTP-Binding Protein Adopting the Characteristic Conformation of Active Translational GTPases” (Structure(London, England:1993), 2015)
